Experimental data as given in patent US5292737A, “N,N'-bis(sulfonamido)-2-amino-4-iminonaphthalen-1-ones and N,N'-bis(amido)-2-amino-4-iminonaphthalen-1-ones” (Sphinx Pharmaceuticals Corporation, priority 1992, dated 1994).

Legend:
[1] = system: MCF-7 human breast tumor cell line; assay: Human Tumor Cell Growth Inhibition (3H-thymidine incorporation); format: cell-based; details: MCF-7, 24 hrs
Protocol: MCF-7 a human breast tumor cell line was obtained from the National Cancer Institute, Frederick, Md. Tumor cells were trypsinized with 0.05% trypsin obtained from GIBCO (Grand Island Biological Co. Laboratories, Grand Island, N.Y.), counted with a hemacytometer and seeded at a concentration of 7,500 cells/well in a 96 well microtiter plate and allowed to attach to the surface overnight. To determine a concentration response, test agents were serially diluted an […] added at 2× final concentration to quadruplicate cultures to bring the total volume of each well to […]. The microtiter plate was then incubated at 37° C., 5% CO2 for 24 hrs with ^3 H-thymidine added at a concentration of 0.5 mCi/well in […] of 0.05% trypsin (GIBCO) was added to each well. Cells were checked microscopically to determine detachment from surfaces, and plates were harvested with a cell harvester (PHD, Cambridge Technology, Inc.). Filter paper corresponding to wells were placed in scintillation vials and counted to determine the amount ^3 H-thymidine incorporated by the cells. Counts per minute (CPM) of quadruplicate cultures were averaged and a percent of control calculated for each test agent concentration by the following formula: [formula]
The IC50 or concentration necessary to inhibit the proliferation of cells by 50% compared to control, of each test agent was determined by plotting % control vs log concentration for each dilution and then linear forecasting the 50% control value onto the X axis on a Quattro Pro computer program. Only regression values with a correlation coefficient greater then 0.9 were considered acceptable.

PKC isoenzyme δ = target: T1, PKC isoenzyme δ (Homo sapiens, UniProt Q05655); assay: Protein kinase C inhibition assay, PKC isoenzyme δ; format: biochemical; details: read-out: IC50 PKC δ
T1 construct: made in house; host or cells: baculovirus-insect cell expression system
In short: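 Inhibition is measured as the compound concentration halving phosphate transfer to histone H1 or myelin basic protein by baculovirus-expressed enzyme. Assays use near-physiologic conditions with sub-saturating phosphatidylserine/DAG vesicles, compound at four concentrations up to 150 μM, and a 10 min reaction terminated by trichloroacetic acid before filter counting.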

human neutrophils = assay: Neutrophil Superoxide Anion (O2) Release Assay, PMA-stimulated; format: cell-based; details: PMA-stimulated human neutrophils; read-out: Neutrophil Superoxide Release IC50
Excerpt: Phorbol-12,13-myristate acetate (PMA) stimulates O2 production in human neutrophils which in turn reduces cytochrome C. Reducing cytochrome C increases absorbance and the change in optical density (OD) is proportional to the amount of O2 produced by PMA stimulation. Inhibition is expressed as an IC50 value and is the amount of test compound that will inhibit fifty percent of the PMA-stimulated respiratory outburst, i.e. O2^31 production (Lherer et al. (1981) J. Clinical lnvest. 68:1314; Roberts et al. (1982) J. Immunological Methods 49:193).
Human donor blood in 0.38% Sodium Citrate was centrifuged for 10 minutes at 160 ×g at room temperature. Platelet-rich plasma was removed leaving the buffy coat and the red cell-enriched fraction. Saline with 0.38% Sodium Citrate was added to this fraction up to the original blood volume. The enriched blood sample was diluted 1:1 (v:v) with 3% dextran T500 (Pharmacia) in normal saline and placed in a 60 cc syringe, inverted over a beaker and allowed to settle 30 minutes at room temperature.
Leukocyte-enriched plasma was removed from the syringe, placed into 50 ml polypropylene conical centrifuge tubes and underlaid with 15-20 ml Lymphocyte Separation Medium (LSM Organon Technica). The tubes were centrifuged for 40 minutes at 500×g at room temperature. The plasma, buffy coat and LSM were aspirated off the pellets which contained red blood cells and neutrophils.
The pellets were vortexed and 10 ml ice-cold 0.2% NaCl was added to lyse the red blood cells while vortexing again for 10 seconds. Ice-cold 1.6% NaCl was added while vortexing for 10 seconds. The cells were combined from multiple tubes, centrifuged 10 min at 400×g at 4° C. This red cell lysis was repeated and the resulting neutrophil pellet was washed once in Reaction HBSS (GIBCO, HBSS with Ca^++ and Mg^++,.238% HEPES, 0.1% dextrose, 0.1% RIA grade bovine serum albumin, PH 7.2). The cells were resuspended in 1/5 the original blood volume with Reaction HBSS, counted and adjusted to 4.0×10^6 cells/ml at 4° C.
Duplicate samples of neutrophils were tested in 12×75 mm polypropylene tubes containing 0.25 ml of the neutrophil suspension. Cytochrome C mix (0.25 ml, 6.0 mg/ml cytochrome C type IV (Sigma) plus 1200 U/ml bovine liver catalase (Sigma) in Reaction HBSS described above) was added. PMA was added at 2×the final concentration in 0.5 ml of Reaction HBSS. PMA final test concentration were 0.0, 0.3, 9.0, 27.0, and 81.0 ng/ml. The tubes were vortexed and incubated for 10 minutes at 37° C. with shaking. After chilling for 5 minutes at 4° C. and centrifuging for 10 minutes at 4° C., 550×g, 0.5 ml of supernatant was removed from each tube. Normal saline (0.5 ml) was added to each 0.5 ml sample of supernatant and the absorbance of each sample was read at 550 nm on a spectrophotometer (Shimadzu). The PMA concentration which gives nearly maximal stimulation of superoxide release was determined.
The test samples of neutrophils were prepared as in the PMA dose response through addition of cytochrome C mix. Then 0.4 ml of Reaction HBSS as a control or test agent at 2.5×final test concentration was added and the tubes were vortexed and incubated for 30 minutes at 37° C. with shaking. PMA (0.1 ml) was added at a 10× concentration of the final concentration determined above. The samples were incubated for 10 minutes at 37° C. with shaking, chilled for 5 minutes at 4° C., and then centrifuged for 5 minutes at 550×g at 4° C. The supernatant (0.5 ml) was diluted with 0.5 ml normal saline as above and the absorbance was then determined at 550 nm. The percent change was calculated as follows: [formula] D-sphingosine (Sigma) used as reference standard.
Human neutrophils were first isolated according to Lherer et al. ((1981) J. Clinical Invest. 68:1314) and then tested for stimulation of superoxide anion release with phorbol--12,13-myristate acetate (PMA) in a dose-dependent manner. […]

T1 sequence (Q05655 whole entry): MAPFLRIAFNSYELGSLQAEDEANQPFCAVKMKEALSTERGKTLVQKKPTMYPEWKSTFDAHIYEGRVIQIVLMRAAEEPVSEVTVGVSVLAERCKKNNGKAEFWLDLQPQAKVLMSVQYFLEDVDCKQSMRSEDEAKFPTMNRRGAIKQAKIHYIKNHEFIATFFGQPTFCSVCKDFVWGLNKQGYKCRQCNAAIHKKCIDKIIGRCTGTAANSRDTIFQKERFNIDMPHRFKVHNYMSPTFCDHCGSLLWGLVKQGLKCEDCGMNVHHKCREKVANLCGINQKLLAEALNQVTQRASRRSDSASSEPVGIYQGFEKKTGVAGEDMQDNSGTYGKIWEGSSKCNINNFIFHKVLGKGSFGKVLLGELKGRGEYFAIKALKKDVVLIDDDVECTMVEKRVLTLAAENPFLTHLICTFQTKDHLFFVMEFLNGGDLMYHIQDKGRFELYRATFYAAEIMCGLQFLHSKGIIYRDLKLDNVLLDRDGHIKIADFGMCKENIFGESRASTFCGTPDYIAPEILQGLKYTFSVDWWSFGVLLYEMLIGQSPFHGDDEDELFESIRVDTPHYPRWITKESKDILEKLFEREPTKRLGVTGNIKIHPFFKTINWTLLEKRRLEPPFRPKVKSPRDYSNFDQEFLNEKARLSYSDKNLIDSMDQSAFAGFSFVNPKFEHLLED

IC50 [1]	IC50 (PKC isoenzyme δ)	IC50 (human neutrophils)	SMILES
15.5 µM	10 µM	1.88 µM	Cc1cc(C)nc(NS(=O)(=O)c2ccc(N=C3C=C(Nc4ccc(S(=O)(=O)Nc5nc(C)cc(C)n5)cc4)C(=O)c4ccccc43)cc2)n1 [Compound 6c]
17.9 µM	47 µM	6.47 µM	Cc1cc(NS(=O)(=O)c2ccc(N=C3C=C(Nc4ccc(S(=O)(=O)Nc5cc(C)nc(C)n5)cc4)C(=O)c4ccccc43)cc2)nc(C)n1 [Compound 6d]
17.7 µM	43 µM	2.11 µM	Cc1ccnc(NS(=O)(=O)c2ccc(N=C3C=C(Nc4ccc(S(=O)(=O)Nc5nccc(C)n5)cc4)C(=O)c4ccccc43)cc2)n1 [Compound 6f]
21 µM	> 150 µM	1.34 µM	COc1cc(NS(=O)(=O)c2ccc(N=C3C=C(Nc4ccc(S(=O)(=O)Nc5cc(OC)nc(OC)n5)cc4)C(=O)c4ccccc43)cc2)nc(OC)n1 [Compound 6g]
14.9 µM	> 150 µM	2.4 µM	COc1cnc(NS(=O)(=O)c2ccc(N=C3C=C(Nc4ccc(S(=O)(=O)Nc5ncc(OC)cn5)cc4)C(=O)c4ccccc43)cc2)nc1 [Compound 6h]
20 µM	120 µM	0.11 µM	O=C1C(Nc2ccc(S(=O)(=O)Nc3ccccn3)cc2)=CC(=Nc2ccc(S(=O)(=O)Nc3ccccn3)cc2)c2ccccc21 [Compound 6i]
10.9 µM	113 µM	3.33 µM	COc1ccc(NS(=O)(=O)c2ccc(N=C3C=C(Nc4ccc(S(=O)(=O)Nc5ccc(OC)nn5)cc4)C(=O)c4ccccc43)cc2)nn1 [Compound 6j]
19 µM	37 µM	1.39 µM	O=C1C(Nc2ccc(S(=O)(=O)Nc3cnc4ccccc4n3)cc2)=CC(=Nc2ccc(S(=O)(=O)Nc3cnc4ccccc4n3)cc2)c2ccccc21 [Compound 6m]
